Reference: article PMC7745444 (ACS Omega, 2020)

What was measured:
[1] = biological target: β-galactosidase (Escherichia coli, UniProt P00722); assay: p-nitrophenyl galactopyranoside hydrolysis, absorbance at […] nm; format: biochemical
[2] = biological target: β-glucosidase; assay: p-nitrophenyl glucopyranoside hydrolysis, absorbance at […] nm; format: biochemical, Prunus dulcis

Chain of β-galactosidase (P00722 2-1024): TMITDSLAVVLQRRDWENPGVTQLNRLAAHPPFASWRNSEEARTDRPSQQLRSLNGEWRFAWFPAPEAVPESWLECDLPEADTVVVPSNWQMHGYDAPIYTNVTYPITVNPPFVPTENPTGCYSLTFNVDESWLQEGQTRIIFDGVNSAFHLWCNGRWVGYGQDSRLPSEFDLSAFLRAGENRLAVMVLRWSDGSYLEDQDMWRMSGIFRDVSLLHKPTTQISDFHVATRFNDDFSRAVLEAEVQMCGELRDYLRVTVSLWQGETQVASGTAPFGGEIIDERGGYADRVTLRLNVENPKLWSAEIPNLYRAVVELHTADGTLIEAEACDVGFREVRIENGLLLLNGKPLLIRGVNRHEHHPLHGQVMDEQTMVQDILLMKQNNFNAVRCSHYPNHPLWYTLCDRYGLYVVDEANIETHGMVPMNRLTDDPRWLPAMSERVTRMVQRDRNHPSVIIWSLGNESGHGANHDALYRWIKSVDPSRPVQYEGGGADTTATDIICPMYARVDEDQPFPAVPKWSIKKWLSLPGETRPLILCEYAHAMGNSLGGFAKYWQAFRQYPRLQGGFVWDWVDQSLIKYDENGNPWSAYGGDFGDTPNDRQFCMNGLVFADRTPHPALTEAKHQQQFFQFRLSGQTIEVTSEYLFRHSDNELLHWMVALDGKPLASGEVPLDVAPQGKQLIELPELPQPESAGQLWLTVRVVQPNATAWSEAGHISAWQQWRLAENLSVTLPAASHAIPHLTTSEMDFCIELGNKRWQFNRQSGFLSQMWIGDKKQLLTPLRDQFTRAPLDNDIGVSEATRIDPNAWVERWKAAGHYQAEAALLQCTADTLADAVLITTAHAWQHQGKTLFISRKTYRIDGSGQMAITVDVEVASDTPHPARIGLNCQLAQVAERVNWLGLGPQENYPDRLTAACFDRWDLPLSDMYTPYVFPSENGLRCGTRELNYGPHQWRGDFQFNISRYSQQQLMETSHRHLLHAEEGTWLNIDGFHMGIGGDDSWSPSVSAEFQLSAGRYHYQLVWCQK

SMILES	Ki [1] [mM]	Ki [2] [mM]
O=C(O)[C@H]1[C@@H]2CN[C@H](CO)[C@@H](O)[C@@H]21 [8a, (1R,4R,5S,6S,7S)-5-Hydroxy-4-(hydroxymethyl)-3-azabicyclo[4.1.0]heptane-7-carboxylic Acid]	1.18	–
CN1C[C@H]2[C@H](CO)[C@H]2[C@H](O)[C@H]1CO [compound 9, (1S,4R,5S,6S,7S)-4,7-bis(Hydroxymethyl)-3-methyl-3-azabicyclo[4.1.0]heptan-5-ol]	–	4.43
